One compound from patent US20120020876A1, “HEDGEHOG PATHWAY INHIBITORS” (priority 2009, published 2012) can be followed below.

“Also recorded” adds a separate entry of the source.

Common to all, as to format: in vivo, mouse
Series [1] deals with pancreatic tumors in KPC mice. Briefly: Survival study of tumor-bearing KPC mice. Particulars: KPC mice enrolled with 5-10 mm tumors. The protocol:
vehicles: 20 μL/g 0.85% NaCl+8 μL/g 5% HPBCD;
Compound A: 40 mg/kg Compound A+20 μL/g 0.85% NaCl;
For survival studies, mice were enrolled following the detection of 5-10 mm diameter tumor by ultrasound. Tumors were quantified by 3D ultrasound twice weekly until endpoint.

The nature of series [2]: Compound A concentration in tissues by LC/MS. Particulars: KPC mice; oral administration 40 mg/kg; 6 h after final dose. The protocol: KPC mice harboring pancreatic tumors were treated with 40 mg/kg of Compound A by oral gavage, either singly, once daily for four days or at as part of a survival study. […] Six hours following the final dose, tissue samples were harvested, snap frozen in liquid nitrogen and stored at −80° C. Mice with abdominal ascites were excluded from analysis. Samples were analyzed by LC/MS, as described below.
Calibration standard stock solutions were prepared by dissolving Compound A at a concentration of 2.5 mg/mL in DMSO. Internal standard stock solution was prepared by dissolving deuterated Compound A (Compound A-d^3) in DMSO for a final concentration of 2.5 mg/mL. Stock solutions were stored in aliquots at −80° C. until further use. […]
Tumor samples were homogenized in 4 volumes of ACN:PBS buffer. […] Compound A concentrations for all tissues were preferentially determined using the 1:1 dilution unless any of the replicates for a given tissue required the higher dilution of 1/100 for accurate quantitation.
Compound A concentrations in the samples were determined from the calibration curves generated in homogenization buffer. […]
The data were acquired and processed using the software Analyst 1.4.1 (Applied Biosystems, Foster City, Calif.). For the standard curve samples, peak area ratios of Compound A to internal standard […] were calculated and plotted against the theoretical concentrations. […]

Series [3] deals with KPC tumor vasculature. Briefly: Mean vascular density and vascular-tumor distance (CD31 immunohistochemistry) in KPC tumors. The protocol:
Tissues were fixed in 10% formalin solution for 24 hours and transferred to 70% ethanol. Tissues were paraffin embedded, sectioned and rehydrated. For CD31 IHC, sections were unmasked in 10 mM EDTA, pH 8.0 in a pressure cooker. For all other antibodies, sections were unmasked in 10 mM citric acid in a pressure cooker. Endogenous peroxidases were quenched in 3% H2O2/PBS for 20 minutes. Remaining steps were carried out with Vectastain ABC kits appropriate to the species of primary antibody (Vector Labs, Burlingame, Calif.) with the following modification: blocking serum was supplemented with Protein Blocking Agent (Immunotech/BeckmanCoulter, Fullerton, Calif.) diluted 1:50. Antigens were developed with DAB Peroxidase Substrate (Vector Labs). […]
Tissue sections were probed with anti-CD31 antibodies and counterstained with hematoxylin. Mean vascular density (MVD) was determined as the number of CD31 positive blood vessels per 40× field, over three random fields per tumor. The distance separating intratumoral blood vessels and neoplastic cells was determined for twenty randomly chosen blood vessels per tumor. Each intratumoral blood vessels was photographed at 1000× magnification, and the distance to the four nearest tumor cells was measured and the results averaged.

Series [4] has as its system KPC tumors. Briefly: Doxorubicin delivery to treated KPC tumors (doxorubicin fluorescence, laser scanning cytometry). Particulars: KPC tumors after 8-12 days of treatment; doxorubicin 20 mg/kg infused. The protocol: To assess the functional vasculature, biotin-conjugated Lycopersicon esculentum lectin (B1175-1 mg, Vector Laboratories) was resuspended in 425 μL PBS and mixed with 75 μL of 1 mg/mL Streptavidin-AlexaFluor 633 (S21375, Molecular Probes) (in sterile PBS). Prior to use, the lectin-avidin mixture was centrifuged 14,000 k on a microfuge for 10 minutes to remove any particulate. Fifteen minutes prior to euthanasia, 100 μl (0.4 mg total) of the conjugated lectin was administered as a slow intravenous infusion over 5 minutes, and the hemodynamics monitored closely to ensure that it was tolerated. […]
Mice were perfused with 4% paraformaldehyde in PBS, pH 7.4, while under terminal anesthesia. […] Doxorubicin fluorescence was determined by quantitative imaging cytometry using the iCys Research Imaging Cytometer (CompuCyte, Cambridge, Mass.) with iNovator software (CompuCyte).
A scanning protocol for quantification was configured with two channels. Nuclear DAPI fluorescence was excited by the 405 nm diode laser and detected in the blue ([…]) channel and doxorubicin fluorescence was excited by the argon […] laser and detected in the orange ([…]) channel. The threshold in the DAPI channel was optimised to selectively contour individual cells allowing fluorescence measurement within the primary and peripheral nuclear contours. […]

Regarding `CC1=C2C[C@H]3[C@@H](CC[C@@H]4C[C@H](NS(C)(=O)=O)CC[C@@]43C)[C@@H]2CC[C@@]2(C1)O[C@@H]1C[C@H](C)CN[C@H]1[C@H]2C.Cl` [Compound A], the “effect on survival of KPC mice” value in series [1] is recorded as “Neither gemcitabine nor Compound A treatment had an effect on the survival”. For the same compound, the “accumulation of drug in PDA tissues” value in series [2] was “measurable accumulation of drug in PDA tissues”. Also, in series [3] (KPC tumors after 8-12 days of treatment), the “mean vascular density (MVD)” value was “higher MVD; also recorded: significantly elevated; also recorded: increased MVD”. Moreover, the “position of intratumoral blood vessels relative to tumor cells” value in series [3] (KPC tumors, vs control and gemcitabine-treated specimens) is “positioned in close proximity to tumor cells”. Besides, in series [4], the “doxorubicin delivery to tumor tissue (fluorescence per unit area)” value is reported as “evident but more variable; also recorded: increased content”.
